Results taken from article PMC12434519.
pEC50, pIC50: −log10 of the molar value. Like-named read-outs stand apart in the source and are kept apart here.

Tests used:
[1] = biological target: human RNMT-RAM complex (Homo sapiens, UniProt O43148); assay: Biochemical activity assay for the human RNMT-RAM complex (MTase-Glo); details: for Emax: read-out: hRNMT-RAM inhibition: Maximum response; for hRNMT-RAM inhibition: Hill slope: fit of concentration-response curve
[2] = SAH counterscreen inhibition (counterscreen of the MTase-Glo luminescence readout); details: for SAH counterscreen inhibition: Maximum response / pIC50: LUM % inhibition; for SAH counterscreen inhibition: Hill slope: fit of concentration-response curve; for pIC50: read-out: SAH counterscreen inhibition: IC50
[3] = biological target: ZIKV NS5 (Zika virus, UniProt Q32ZE1); assay: Biochemical activity assay for ZIKV NS5 MTase (MTase-Glo); details: for Emax: 0.75 h, read-out: ZIKV NS5 inhibition: Maximum measured; for ZIKV NS5 inhibition: Hill slope: fit of concentration-response curve
Description: final concentration, lab stock) during dialysis at 4 °C overnight against a buffer containing 50 mM Tris-HCl, pH 7.5, 20 mM imidazole, 500 mM NaCl, and 1 mM dithiothreitol (DTT). To remove the His6-SUMO tag, the protein sample was mixed with cOmplete His-Tag purification resin (Roche), incubated for 2 h at 4 °C, and loaded onto a gravity flow column. Since the His6-SUMO tag bound to the column material, the flow-through was collected containing untagged target protein. The target protein was further purified by a Superdex200 10/300 gel filtration column (GE Healthcare) in buffer (20 mM Tris-HCl, pH 7.5, 500 mM NaCl, 1 mM DTT). Fractions were analyzed by SDS-PAGE and Coomassie staining. Protein-containing fractions were pooled, flash-frozen in liquid nitrogen, and stored at -80 °C. […]
in 1X NSP14 reaction buffer (50 mM Tris-HCl, pH 7.5, 6 mM KCl, 1.25 mM MgCl2, 1 mM DTT, and 0.01% Tween-20) in a total reaction volume of 16 µl in absence or presence of increasing inhibitor compound concentrations for 45 min at 37 °C. SAH production was monitored using the bioluminescence-based MTase-Glo™ Methyltransferase Assay kit (Promega) following manufacturer’s instructions. The luminescence signal of each reaction was recorded in relative light units (RLUs) using a Synergy Neo plate reader (BioTek, Winooski, VT). […] IC50 values (mean from at least 3 independent experiments) were calculated using the GraphPad Prism software (Version 10.1.1) and a four-parameter logistic regression.
Biochemical activity assays for the human RNMT-RAM complex and ZIKV NS5 MTases Activity assays were performed in 1x NSP14 reaction buffer. For hRNMT-RAM, we used 15 nM enzyme, 2.5 µM GpppG and 2 µM SAM. For ZIKV NS5, we used 25 nM enzyme, 3 µM […]
Gppp[…]3, and 5 µM SAM. The enzymatic reaction was initiated with the addition of the enzyme in assay buffer and incubated at RT or 37 °C for 45 min, respectively. SAH was detected using the MTase-Glo™ assay.
Differential scanning fluorimetry (DSF)

[4] = test system: SARS-CoV-2; design: method as in PMID 39663451; details: transgenic mouse model; efficacy comparable to nirmatrelvir; cited from earlier work
[5] = test system: SARS-CoV-2; assay: SARS-CoV-2 viral infection assay in Huh-7.5 cells; format: cell-based, SARS-CoV-2 (strain: USA-WA1/2020); details: n = 3
[6] = test system: Huh-7.5 cells; assay: Cytotoxicity in Huh-7.5 cells; format: cell-based, Homo sapiens; details: at ≤ 3 μM compound
[7] = Cytotoxicity in Huh-7.5 cells; format: cell-based, Homo sapiens; details: human, n = 3
[8] = LUM % inhibition, read-out: hRNMT-RAM inhibition: IC50
[9] = selectivity assay, read-out: ZIKV NS5 inhibition IC50

ZIKV NS5, sequence (Q32ZE1 2517-2781): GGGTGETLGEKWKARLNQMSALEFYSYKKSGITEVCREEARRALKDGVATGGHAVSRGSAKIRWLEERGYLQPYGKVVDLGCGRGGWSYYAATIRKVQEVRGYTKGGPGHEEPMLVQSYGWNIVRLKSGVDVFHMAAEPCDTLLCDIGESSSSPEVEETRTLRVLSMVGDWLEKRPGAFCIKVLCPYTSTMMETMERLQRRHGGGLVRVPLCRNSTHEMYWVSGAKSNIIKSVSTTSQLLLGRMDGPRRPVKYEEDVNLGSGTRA
human RNMT-RAM complex, sequence (O43148 whole entry): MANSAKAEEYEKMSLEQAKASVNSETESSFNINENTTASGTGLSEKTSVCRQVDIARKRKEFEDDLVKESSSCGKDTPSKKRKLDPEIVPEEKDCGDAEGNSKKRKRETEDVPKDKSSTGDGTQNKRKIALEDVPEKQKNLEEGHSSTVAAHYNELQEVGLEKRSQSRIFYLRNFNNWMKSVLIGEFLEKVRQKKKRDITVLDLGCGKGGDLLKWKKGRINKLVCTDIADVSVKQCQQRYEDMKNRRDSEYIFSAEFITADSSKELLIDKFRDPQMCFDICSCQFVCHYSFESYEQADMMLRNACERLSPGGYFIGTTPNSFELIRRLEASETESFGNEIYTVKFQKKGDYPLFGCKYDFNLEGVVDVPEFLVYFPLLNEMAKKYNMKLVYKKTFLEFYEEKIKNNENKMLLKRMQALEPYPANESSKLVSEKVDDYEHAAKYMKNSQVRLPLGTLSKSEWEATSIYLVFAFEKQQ
human RNMT-RAM complex, sequence (Q9BTL3 whole entry partner): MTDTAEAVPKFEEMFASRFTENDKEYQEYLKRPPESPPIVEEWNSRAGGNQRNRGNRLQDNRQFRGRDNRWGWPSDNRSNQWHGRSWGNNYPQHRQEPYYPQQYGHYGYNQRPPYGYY

Row | SMILES | pIC50 [1] | Emax ([1]; LUM % inhibition) | hRNMT-RAM inhibition: Hill slope [1] | SAH counterscreen inhibition: Maximum response [2] | SAH counterscreen inhibition: Hill slope [2] | pIC50 [2] | Emax ([3]; LUM % inhibition) | pIC50 ([3]; LUM % inhibition) | ZIKV NS5 inhibition: Hill slope [3] | pIC50 [1, 8] | Emax [1] | pIC50 [3, 9] | Inhibition of viral replication in vivo [4] | pEC50 ([5]; Huh-7.5 cells, read-out: Anti-SARS-CoV-2 activity EC50) | pEC50 ([5]; Severe acute respiratory syndrome coronavirus 2, Huh7.5, read-out: Anti-SARS-CoV-2 activity EC50, Huh-7.5 cells) | Cytotoxicity [6] | CC50 [7]
1 | Nc1ncnc2c1ncn2C1OC(CC(N)CCC(N)C(=O)O)C(O)C1O (centres unmarked) [RU-0425548] | 8.22 | 102% | 0.881 | 8.34% | 7.74 | < 4.20 | 109% | 6.68 | 0.774 |  |  |  |  |  |  |  | 
2 | COc1ccc(-c2ocnc2C(=O)Nc2ccc3oc(=O)n(CC(=O)N4CCCCC4)c3c2)cc1 [RU-0833661, COC1=CC=C(C2=C(C(=O)NC3=CC=C4OC(=O)N(CC(=O)N5CCCCC5)C4=C3)N=CO2)C=C1] |  |  | 5.03 | 20.6% | 0.36 | < 3.90 | 66.6% |  | 1.01 | < 3.90 | 36.6% | 4.13 |  |  |  |  | 
3 | O=C(Cn1cccc(-c2nc(-c3ccccc3)no2)c1=O)Nc1ccc(F)cc1F [RU-0833868, Fc1c(NC(=O)CN2C=CC=C(c3nc(c4ccccc4)no3)C2=O)ccc(F)c1] |  |  | 3.14 | 21.5% | 19.2 | < 3.90 | 64.4% |  | 0.969 | < 3.60 | 5.14% | 3.91 |  |  |  |  | 
4 | Cc1ccc(NC(=O)Cn2nnc3ccccc3c2=O)cc1S(=O)(=O)N1CCCCC1 [RU-0833928, S(=O)(=O)(N1CCCCC1)c1c(C)ccc(NC(=O)CN2N=Nc3c(cccc3)C2=O)c1] |  |  | 0.501 | 21.6% | -3.01 | < 3.90 | 9.49% | < 3.60 | -7.54 | < 3.60 | 8.18% |  |  |  |  |  | 
5 | Cc1nc(C)c(C(=O)NCc2ccc(CNC(=O)c3ccc(O)c(F)c3)cc2)nc1C [RU-0834080, CC1=NC(C)=C(C)N=C1C(=O)NCC1=CC=C(CNC(=O)C2=CC(F)=C(O)C=C2)C=C1] |  |  | 1.28 | 16.2% | -2.71 | < 3.90 | 18.4% | < 3.60 | 1.81 | < 3.60 | 23.1% |  |  |  |  |  | 
6 | CCn1nc(C)c(C(=O)NCCc2ccc(CNC(=O)c3ccc4[nH]ncc4c3)cc2)c1C [RU-0834081, CCN1N=C(C)C(C(=O)NCCC2=CC=C(CNC(=O)C3=CC4=C(C=C3)NN=C4)C=C2)=C1C] |  |  | 0.243 | 11.2% | 6.42 | < 3.90 | 15.9% | < 3.60 | 4.21 | < 3.60 | 15.2% |  |  |  |  |  | 
7 | Cc1cc(C(=O)NCc2ccc(C(=O)NC(C)c3ccccc3C)nc2)ccc1O (centres unmarked) [RU-0834146, CC1=CC(C(=O)NCC2=CN=C(C(=O)NC(C)C3=C(C)C=CC=C3)C=C2)=CC=C1O] |  |  | 86 | 16.1% | -44.2 | < 3.90 | 11.2% | < 3.60 | 10.6 | < 3.60 | 4.85% |  |  |  |  |  | 
8 | Cc1nccc(C(=O)NCC2CCC3(CN(C(=O)c4cc(C)c5[nH]ncc5c4)C3)O2)c1C (centres unmarked) [RU-0834173, CC1=C2C(=CC(C(=O)N3CC4(C3)CCC(CNC(=O)C3=C(C)C(C)=NC=C3)O4)=C1)C=NN2] |  |  | 1.99 | 12.6% | -9.25 | < 3.90 | 10.3% | < 3.60 | 20.4 | < 3.60 | 3.36% |  |  |  |  |  | 
9 | Cc1cccc(C(=O)NCC2CCC3(CN(C(=O)c4cc(C)c5[nH]ncc5c4)C3)O2)c1F (centres unmarked) [RU-0834174, CC1=CC(C(=O)N2CC3(C2)CCC(CNC(=O)C2=CC=CC(C)=C2F)O3)=CC2=C1NN=C2] |  |  | 0.374 | 16.2% | -17 | < 3.90 | 12.9% | < 3.60 | 1.95 | < 3.60 | 26.5% |  |  |  |  |  | 
10 | Cc1ccc(C)c(C(=O)NCC2CCC3(CN(C(=O)c4cc(C)c(O)c(C)c4)C3)O2)c1C (centres unmarked) [RU-0834178, CC1=CC(C(=O)N2CC3(C2)CCC(CNC(=O)C2=C(C)C=CC(C)=C2C)O3)=CC(C)=C1O] |  |  | 13.1 | 18.2% | -6.31 | < 3.90 | 20.5% | < 3.60 | 0.402 | < 3.60 | 3.1% |  |  |  |  |  | 
11 | C[C@@H](NC(=O)c1ccc(CNC(=O)c2ccc3[nH]ncc3c2)cc1)c1cccc(O)c1 [RU-0834179, C[C@@H](NC(=O)C1=CC=C(CNC(=O)C2=CC=C3NN=CC3=C2)C=C1)C1=CC(O)=CC=C1] |  |  | 0.0614 | 14.4% | 11.5 | < 3.90 | 12.5% | < 3.60 | 1.12 | < 3.60 | 6.78% |  |  |  |  |  | 
12 | Cc1cc(C)c(C(=O)NCc2ccc(CNC(=O)c3ccc(O)c(C)c3)cc2)cn1 [RU-0834181, CC1=CC(C(=O)NCC2=CC=C(CNC(=O)C3=CN=C(C)C=C3C)C=C2)=CC=C1O] |  |  | 0.346 | 12.2% | 63.6 | < 3.90 | 14.9% | < 3.60 | 0.143 | < 3.60 | 20.8% |  |  |  |  |  | 
13 | Cc1cnc(C(C)NC(=O)c2ccc(CNC(=O)c3ccc(O)c(C)c3)cn2)nc1 (centres unmarked) [RU-0834184, CC1=CN=C(C(C)NC(=O)C2=NC=C(CNC(=O)C3=CC=C(O)C(C)=C3)C=C2)N=C1] |  |  | 137 | 16.9% | 13.5 | < 3.90 | 12.7% | < 3.60 | 1.19 | < 3.60 | 5.53% |  |  |  |  |  | 
14 | Cc1cnc(C(=O)NCc2ccc(CNC(=O)c3ccc(O)c(C)c3)cc2)c(C)c1 [RU-0834201, CC1=CC(C)=C(C(=O)NCC2=CC=C(CNC(=O)C3=CC=C(O)C(C)=C3)C=C2)N=C1] |  |  | 35.3 | 14.6% | -59.4 | < 3.90 | 12.1% | < 3.60 | 0.157 | < 3.60 | 6.56% |  |  |  |  |  | 
15 | Cc1c(S(=O)(=O)N2CCc3[nH]ncc3C2)cc(C(=O)NCc2c(F)ccc3occc23)n1C [TDI-015051] |  |  |  |  |  |  |  |  |  |  |  |  | inhibited viral replication |  |  |  | 
16 | Cc1cc(S(=O)(=O)c2cc(C(=O)NCc3c(F)ccc4cnn(C5CC5)c34)n(C)c2C)cc2cn[nH]c12 [TDI-016037] |  |  |  |  |  |  |  |  |  |  |  |  |  | 8.10 | 8.07 | no cytotoxicity was detected | ≥ 3 µM
